Consider 54 molecules from ChEMBL document CHEMBL5257022, “An integrated overview on pyrrolizines as potential anti-inflammatory, analgesic and antipyretic agents” (Eur J Med Chem, 2016).

A value given as a limit tells only on which side of the number the result lay.

The test system of assay [1] is Rattus norvegicus. Put plainly: Antiinflammatory activity in rat assessed as inhibition of paw edema. The class given is functional.
The test system of assay [2] is Rattus norvegicus. Put plainly: Antiinflammatory activity in rat assessed as fold change in inhibition of paw edema relative to phenylbutazone. The assay is classed as functional.
For assay [3], the species on record is Mus musculus. Put plainly: Analgesic activity in mouse assessed as inhibition of acetic acid-induced writhing response relative to aspirin. The assay is classed as functional.
Assay [4] concerns the target T1, Prostaglandin G/H synthase 1 (Ovis aries) (UniProt P05979).
T1 sequence (whole entry): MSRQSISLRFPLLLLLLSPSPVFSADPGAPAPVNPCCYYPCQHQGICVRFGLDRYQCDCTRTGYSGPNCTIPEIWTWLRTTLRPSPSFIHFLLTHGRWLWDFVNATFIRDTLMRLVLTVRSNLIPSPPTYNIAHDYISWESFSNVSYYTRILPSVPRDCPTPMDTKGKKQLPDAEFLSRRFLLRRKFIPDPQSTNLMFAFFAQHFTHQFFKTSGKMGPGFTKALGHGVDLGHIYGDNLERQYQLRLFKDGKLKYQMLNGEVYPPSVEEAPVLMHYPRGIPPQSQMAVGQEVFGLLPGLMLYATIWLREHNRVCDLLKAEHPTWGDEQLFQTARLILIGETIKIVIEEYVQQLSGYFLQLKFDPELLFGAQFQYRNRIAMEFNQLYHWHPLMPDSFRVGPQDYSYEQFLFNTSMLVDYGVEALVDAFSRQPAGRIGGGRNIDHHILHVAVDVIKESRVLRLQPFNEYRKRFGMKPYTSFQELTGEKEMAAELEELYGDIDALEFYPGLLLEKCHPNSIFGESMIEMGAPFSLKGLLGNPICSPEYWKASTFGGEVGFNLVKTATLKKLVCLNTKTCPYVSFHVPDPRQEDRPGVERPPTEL
Put plainly: Inhibition of COX1 in ovine thrombocyte at 10 uM relative to control.

In assay [5] the target is Prostaglandin G/H synthase 1 (Homo sapiens, UniProt P23219). Put plainly: Inhibition of COX1 (unknown origin).
Chain of Prostaglandin G/H synthase 1 (P23219 whole entry): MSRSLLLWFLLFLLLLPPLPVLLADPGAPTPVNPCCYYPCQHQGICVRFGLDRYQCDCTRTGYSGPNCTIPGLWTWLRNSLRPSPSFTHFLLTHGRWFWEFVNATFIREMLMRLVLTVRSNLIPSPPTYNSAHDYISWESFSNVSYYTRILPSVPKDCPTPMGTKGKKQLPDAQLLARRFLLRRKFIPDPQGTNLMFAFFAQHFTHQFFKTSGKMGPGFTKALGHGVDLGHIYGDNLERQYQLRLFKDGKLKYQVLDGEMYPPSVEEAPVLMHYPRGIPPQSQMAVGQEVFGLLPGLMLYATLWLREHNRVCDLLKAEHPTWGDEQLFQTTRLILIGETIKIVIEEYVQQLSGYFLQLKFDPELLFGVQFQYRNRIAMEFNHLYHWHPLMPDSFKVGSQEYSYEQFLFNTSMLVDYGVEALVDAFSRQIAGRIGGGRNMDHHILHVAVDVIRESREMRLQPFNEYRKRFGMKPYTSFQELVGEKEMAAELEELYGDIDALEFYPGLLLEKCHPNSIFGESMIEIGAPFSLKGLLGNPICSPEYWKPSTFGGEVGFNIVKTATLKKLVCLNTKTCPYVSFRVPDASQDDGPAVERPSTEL
Assay [6] concerns the target T2, Prostaglandin G/H synthase 2 (Homo sapiens, UniProt P35354).
T2 sequence (P35354 whole entry): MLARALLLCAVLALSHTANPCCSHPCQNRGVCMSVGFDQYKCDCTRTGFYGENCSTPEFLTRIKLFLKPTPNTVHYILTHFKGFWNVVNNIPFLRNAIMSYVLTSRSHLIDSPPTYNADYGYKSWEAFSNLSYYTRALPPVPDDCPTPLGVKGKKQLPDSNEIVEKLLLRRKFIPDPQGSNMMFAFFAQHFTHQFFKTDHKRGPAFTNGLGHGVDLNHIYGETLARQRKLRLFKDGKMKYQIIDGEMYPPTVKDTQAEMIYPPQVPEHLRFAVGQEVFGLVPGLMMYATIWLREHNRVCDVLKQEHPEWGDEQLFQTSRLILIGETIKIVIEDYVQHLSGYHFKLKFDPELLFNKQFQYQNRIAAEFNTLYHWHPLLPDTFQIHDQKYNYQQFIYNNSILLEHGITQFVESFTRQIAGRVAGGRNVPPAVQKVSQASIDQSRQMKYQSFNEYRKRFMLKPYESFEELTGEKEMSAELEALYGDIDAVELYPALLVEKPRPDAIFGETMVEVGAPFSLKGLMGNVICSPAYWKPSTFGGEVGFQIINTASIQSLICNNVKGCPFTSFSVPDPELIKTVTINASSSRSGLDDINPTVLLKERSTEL
Put plainly: Inhibition of COX2 (unknown origin).

For `N#Cc1c(NC(=O)CCN2CCOCC2)c(C(=O)Nc2ccccc2Cl)n2c1CCC2`, the “inhibition (INH)” value in assay [1] worked out at 5.7%. `N#Cc1c(NC(=O)CN2CCOCC2)c(C(=O)Nc2ccccc2Cl)n2c1CCC2`: the “inhibition (INH)” value in assay [1] came out at 7.1%. On to `COc1ccc(C(=O)c2ccc3n2CCC3C(=O)O)cc1` (configuration not stated) [ANIROLAC], for which the “fold change (FC)” value was found to be 83 in assay [2] and 117 in assay [3]. Take `O=C(c1ccccc1)c1ccc2n1CCCC2C(=O)O` (configuration not stated): the “fold change (FC)” value in assay [2] was less than 1; in assay [3], 9. `O=C(O)/C=C/c1c(-c2ccc(S(=O)(=O)Cc3ccccc3)cc2)c(-c2ccccc2)c2n1CCC2` gave an IP in assay [4] of 0%. With `O=C(c1ccccc1)c1ccc2n1CC(C(=O)O)C2` (configuration not stated), the “fold change (FC)” value in assay [2] is less than 1; in assay [3], -4. Regarding `COc1ccc(C(=O)c2ccc3n2CCCC3C(=O)O)cc1` (configuration not stated), the results for the “fold change (FC)” value in assay [2] and in assay [3] were less than 1.6 and 1.5, respectively. In assay [4], `O=C(O)/C=C/c1c(-c2ccc(-c3ccccc3)cc2)c(-c2ccccc2)c2n1CCC2` returned an IP of 35%.

In assay [5], `Cc1c(-c2ccc(Cl)cc2)c(-c2ccccc2)c2n1CC(C)(C)C2=O` gave a 50% inhibitory concentration (IC50) of 950 nM. As for `CSc1ccc(C(=O)c2ccc3n2CCCCC3C(=O)O)cc1` (configuration not stated), the “fold change (FC)” value in assay [2] was less than 0.2; in assay [3], -6. On to `O=C(O)/C=C/c1c(-c2ccc(Nc3ccccc3)cc2)c(-c2ccccc2)c2n1CCC2`, for which the IP in assay [4] worked out at 45%. As for `Cc1ccc(-c2c(-c3ccc(S(C)(=O)=O)cc3)cn3c2CCC3)cc1`, the IC50 was found to be 700 nM in assay [5] and 5 nM in assay [6]. Turning to `CC1(C)Cc2c(-c3ccccc3)c(-c3ccco3)c(CC(=O)O)n2C1`, in assay [5], the half-inhibitory concentration (IC50) is 130 nM. In other words, the sub-micromolar range. On to `CSc1ccc(C(=O)c2ccc3n2CCCC3C(=O)O)cc1` (configuration not stated), for which the “fold change (FC)” value in assay [2] is given as -1; in assay [3] it was 3.

Consider `CC(=O)Nc1c(C#N)c2n(c1C(=O)Nc1ccccc1Cl)CCC2`, for which, in assay [1], the “inhibition (INH)” value stood at 23.9%. Turning to `Nc1ccc(-c2c(-c3ccccc3)c3n(c2/C=C/C(=O)O)CCC3)cc1`, in assay [4], the IP was found to be 31%. `N#Cc1c(NC(=O)CCl)c(C(=O)Nc2ccccc2Cl)n2c1CCC2`: the “inhibition (INH)” value in assay [1] amounted to 22.2%. For the molecule `Cc1ccccc1NC(=O)c1c(NC(=O)CCl)c(C#N)c2n1CCC2`, in assay [1], the “inhibition (INH)” value stood at 20.3%.

As to `COC1c2c(-c3ccccc3)c(-c3ccc(Cl)cc3)c(C)n2CC1(C)C` (configuration not stated), the half-inhibitory concentration (IC50) in assay [6] amounted to 7500 nM. On to `CS(=O)(=O)c1ccc(C(=O)c2ccc3n2CCCC3C(=O)O)cc1` (configuration not stated), for which the “fold change (FC)” value in assay [2] is given as 3; in assay [3], less than 1. For `Cc1ccc(C(=O)c2ccc3n2CCC3C(=O)O)cc1` (configuration not stated), in that order: 39 and 165. Turning to `O=C(O)/C=C/c1c(-c2ccc([S+]([O-])c3ccccc3)cc2)c(-c2ccccc2)c2n1CCC2` (configuration not stated), the IP in assay [4] is 12%. Still for that read-out and setting: with `O=C(O)/C=C/c1c(-c2ccc(Cc3ccccc3)cc2)c(-c2ccccc2)c2n1CCC2` the figure was 28%. Regarding `O=C(c1ccc(Cl)cc1)c1ccc2n1CCCC2C(=O)O` (configuration not stated), the results for the “fold change (FC)” value in assay [2] and in assay [3] were “<=0.6” and less than 1, respectively. On the same counts, the results for `O=C(Cc1ccccc1)c1ccc2n1CCC2C(=O)O` (configuration not stated) are 3 and 14. As to `O=C(c1ccccc1)c1ccc2n1CCCCC2C(=O)O` (configuration not stated), the “fold change (FC)” value in assay [2] is on record as -0.4; in assay [3], -3.

In assay [4], `O=C(O)/C=C/c1c(-c2ccc([S+]([O-])Cc3ccccc3)cc2)c(-c2ccccc2)c2n1CCC2` (configuration not stated) returned an IP of 18%. Consider `O=C(O)/C=C/c1c(-c2ccc(SCc3ccccc3)cc2)c(-c2ccccc2)c2n1CCC2`, for which the IC50 in assay [5] turned out to be 5500 nM. As for `C[S+]([O-])c1ccc(C(=O)c2ccc3n2CCCC3C(=O)O)cc1` (configuration not stated), the results for the “fold change (FC)” value in assay [2] and in assay [3] were less than 0.2 and -0.5, respectively. For `O=C(c1ccc(F)cc1)c1ccc2n1CCCCC2C(=O)O` (configuration not stated), in that order: less than 1 and less than 1.3. In assay [4], `O=C(O)/C=C/c1c(-c2ccc(O)cc2)c(-c2ccccc2)c2n1CCC2` displayed an IP of 0%.

For `O=C(c1ccc(F)cc1)c1ccc2n1CCC2C(=O)O` (configuration not stated), the results for the “fold change (FC)” value in assay [2] and in assay [3] were 61 and 183, respectively.

The molecule `O=C(O)/C=C/c1c(-c2ccc(Nc3ccc(Cl)cc3)cc2)c(-c2ccccc2)c2n1CCC2` yielded an IP in assay [4] of 12%. For the molecule `CC(C)(C)C(=O)c1ccc2n1CCC2C(=O)O` (configuration not stated), the entries for the “fold change (FC)” value in assay [2] and in assay [3] were 1 and -10, respectively. In assay [5], `CC1(C)Cc2c(-c3ccccc3)c(-c3occ4ccccc34)c(CC(=O)O)n2C1` displayed a half-maximal inhibitory concentration (IC50) of 20 nM. In the case of `O=C(O)/C=C/c1c(-c2ccccc2)c(-c2ccccc2)c2n1CCC2`, the IP in assay [4] came to 17%.

In the case of `O=C(O)/C=C/c1c(-c2ccc(Nc3cccc(C(F)(F)F)c3)cc2)c(-c2ccccc2)c2n1CCC2`, the IP in assay [4] came to 45%. `CC(=O)Nc1c(C#N)c2n(c1C(=O)Nc1ccccc1C)CCC2`: the “inhibition (INH)” value in assay [1] was found to be 23.2%. As to `O=C(O)/C=C/c1c(-c2ccc(Sc3ccccc3)cc2)c(-c2ccccc2)c2n1CCC2`, the IP in assay [4] was 40%. Take `O=C(c1cccc(Cl)c1)c1ccc2n1CCCC2C(=O)O` (configuration not stated): the figures for the “fold change (FC)” value in assay [2] and in assay [3] were 8 and -9, respectively. On to `CC1(C)Cc2c(-c3ccccc3)c(-c3ccc(Cl)s3)c(CC(=O)O)n2C1`, for which the concentration for half-maximal inhibition (IC50) in assay [5] came to 210 nM. In assay [4], `O=C(O)/C=C/c1c(-c2ccc(S(=O)(=O)c3ccccc3)cc2)c(-c2ccccc2)c2n1CCC2` displayed an IP of 0%. Turning to `O=C(c1ccc2n1CCC2C(=O)O)C1CCC1` (configuration not stated), the “fold change (FC)” value is given as -1.5 in assay [2] and 30 in assay [3]. For the molecule `Cc1ccccc1NC(=O)c1c(NC(=O)CCCl)c(C#N)c2n1CCC2`, the “inhibition (INH)” value in assay [1] is recorded as 17.5%. For `Cc1ccc(C(=O)c2ccc3n2CCCC3C(=O)O)cc1` (configuration not stated), the entries for the “fold change (FC)” value in assay [2] and in assay [3] were less than 1 and less than 0.5, respectively. `CC1(C)Cn2c(CC(=O)O)c(-c3ccc(Cl)cc3)c(-c3ccccc3)c2C1=O` yielded an IC50 in assay [6] of 2100 nM. Turning to `Cc1ccccc1NC(=O)c1c(NC(=O)CCN2CCOCC2)c(C#N)c2n1CCC2`, in assay [1], the “inhibition (INH)” value worked out at 3.2%. As to `N#Cc1c(NC(=O)CCCl)c(C(=O)Nc2ccccc2Cl)n2c1CCC2`, the “inhibition (INH)” value in assay [1] was found to be 18%. As for `O=C(c1ccc(Cl)cc1)c1c(Cl)cc2n1CCC2C(=O)O` (configuration not stated), the “fold change (FC)” value in assay [2] is listed as 88; in assay [3], 167. Consider `Cc1ccccc1NC(=O)c1c(NC(=O)CN2CCOCC2)c(C#N)c2n1CCC2`, for which the “inhibition (INH)” value in assay [1] was 3.9%. For `CC1(C)Cc2c(-c3ccccc3)c(-c3ccsc3)c(CC(=O)O)n2C1`, the 50% inhibitory concentration (IC50) in assay [5] was determined as 60 nM. As for `O=C(c1ccc(F)cc1)c1ccc2n1CCCC2C(=O)O` (configuration not stated), the “fold change (FC)” value was less than 1 in assay [2] and less than 10 in assay [3]. For `N#Cc1ccc(C(=O)c2ccc3n2CCC3C(=O)O)cc1` (configuration not stated), in that order: less than 1 and 6.

In the case of `O=C(c1ccc(Cl)cc1)c1ccc2n1CC(C(=O)O)C2` (configuration not stated), the results for the “fold change (FC)” value in assay [2] and in assay [3] were less than 0.3 and less than 10, respectively.
